Test results published in ChEMBL document CHEMBL1212738, “Phenotypic and genotypic characterization of Enterobacteriaceae with decreased susceptibility to carbapenems: results from large hospital-based surveillance studies in China” (2010).
Values after ≈ are worked out from the molar mass of the structure shown.

What was measured:
[1] = tested on: Klebsiella pneumoniae; assay: Antimicrobial activity against carbapenem-resistant Klebsiella pneumoniae XJ81 deficient in TEM-1, SHV-12, DHA-1, aac(6')-Ib, ompK35/36 by CLSI method; assay type: functional
[2] = tested on: Enterobacter cloacae; assay: Antimicrobial activity against carbapenem-resistant Enterobacter cloacae SZ93 deficient in ompC by CLSI method; assay type: functional
[3] = tested on: Klebsiella pneumoniae; assay: Antimicrobial activity against carbapenem-resistant Klebsiella pneumoniae CY75 deficient in SHV-11, DHA-1, ompK35/36 by CLSI method; assay type: functional
[4] = tested on: Escherichia coli; assay: Antimicrobial activity against carbapenem-resistant Escherichia coli PU60 deficient in TEM-1, CMY-2, ompC/F by CLSI method; assay type: functional
[5] = tested on: Escherichia coli; assay: Antimicrobial activity against carbapenem-resistant Escherichia coli PU102 deficient in TEM-1, CTX-M-14, CMY-2, aac(6')-Ib, ompC DEc, ompF by CLSI method; assay type: functional
[6] = tested on: Klebsiella pneumoniae; assay: Antimicrobial activity against carbapenem-resistant Klebsiella pneumoniae ZJ70 deficient in KPC-2, SHV-11, CTX-M-14, ompK35/36 by CLSI method; assay type: functional
[7] = tested on: Escherichia coli; assay: Antimicrobial activity against Escherichia coli PU101T expressing CMY-2 by CLSI method; assay type: functional
[8] = tested on: Escherichia coli; assay: Antimicrobial activity against carbapenem-resistant Escherichia coli PU96 deficient in TEM-1, CTX-M-14, CMY-2, ompC/F by CLSI method; assay type: functional
[9] = tested on: Klebsiella pneumoniae; assay: Antimicrobial activity against Klebsiella pneumoniae FZ47T expressing IMP-8, TEM-1, CTX-M-14, qnrB2, aac(6')-Ib by CLSI method; assay type: functional
[10] = tested on: Klebsiella pneumoniae; assay: Antimicrobial activity against carbapenem-resistant Klebsiella pneumoniae SZ61 deficient in TEM-1, SHV-1a, CMY-2, ompK35/36 by CLSI method; assay type: functional
[11] = tested on: Citrobacter freundii; assay: Antimicrobial activity against Citrobacter freundii SZ63 expressing IMP-4, qnrS1by CLSI method; assay type: functional
[12] = tested on: Escherichia coli; assay: Antimicrobial activity against Escherichia coli C600 transconjugant WH76T expressing IMP-4, TEM-1, CTX-M-3, qnrS1 by CLSI method
[13] = tested on: Escherichia coli; assay: Antimicrobial activity against carbapenem-resistant Escherichia coli PU43 deficient in TEM-1, CTX-M-14, aac(6')-Ib, ompC/F by CLSI method; assay type: functional
[14] = tested on: Klebsiella pneumoniae; assay: Antimicrobial activity against carbapenem-resistant Klebsiella pneumoniae ZJ69 deficient in SHV-28, ompK35/36 by CLSI method; assay type: functional
[15] = tested on: Klebsiella pneumoniae; assay: Antimicrobial activity against carbapenem-resistant Klebsiella pneumoniae GZ84 deficient in SHV-11, aac(6')-Ib-cr, ompK35 by CLSI method; assay type: functional
[16] = tested on: Klebsiella pneumoniae; assay: Antimicrobial activity against Klebsiella pneumoniae WH97 expressing SHV-33, aac(6')-Ib, ompK35 DE by CLSI method; assay type: functional
[17] = tested on: Escherichia coli; assay: Antimicrobial activity against Escherichia coli PU60T expressing CMY-2 by CLSI method; assay type: functional
[18] = tested on: Escherichia coli; assay: Antimicrobial activity against Escherichia coli ZJ87T expressing KPC-2 by CLSI method; assay type: functional
[19] = tested on: Escherichia coli; assay: Antimicrobial activity against Escherichia coli C600 transconjugant XJ81T expressing TEM-1, SHV-12, aac(6')-Ib by CLSI method
[20] = tested on: Klebsiella pneumoniae; assay: Antimicrobial activity against Klebsiella pneumoniae ZJ99T expressing KPC-2, CTX-M-3, qnrS1 by CLSI method; assay type: functional
[21] = tested on: Enterobacter cloacae; assay: Antimicrobial activity against carbapenem-resistant Enterobacter cloacae NJ91 deficient in CTX-M-14, ompC/F by CLSI method; assay type: functional
[22] = tested on: Klebsiella pneumoniae; assay: Antimicrobial activity against Klebsiella pneumoniae WH76 expressing IMP-4, TEM-1, SHV-14, CTX-M-3, qnrS1 by CLSI method; assay type: functional
[23] = tested on: Citrobacter freundii; assay: Antimicrobial activity against Citrobacter freundii SZ63T expressing IMP-4, qnrS1by CLSI method; assay type: functional
[24] = tested on: Klebsiella pneumoniae; assay: Antimicrobial activity against carbapenem-resistant Klebsiella pneumoniae GZ66 deficient in SHV-11, DHA-1, ompK35/36 by CLSI method; assay type: functional
[25] = tested on: Klebsiella pneumoniae; assay: Antimicrobial activity against Klebsiella pneumoniae GZ64 expressing IMP-4, ompK35/36 by CLSI method; assay type: functional
[26] = tested on: Klebsiella pneumoniae; assay: Antimicrobial activity against Klebsiella pneumoniae FZ49T expressing IMP-8, TEM-1, CTX-M-14, qnrB2, aac(6')-Ib by CLSI method; assay type: functional
[27] = tested on: Klebsiella pneumoniae; assay: Antimicrobial activity against Klebsiella pneumoniae PU104T expressing TEM-1, CTX-M-15 by CLSI method; assay type: functional
[28] = tested on: Enterobacter cloacae; assay: Antimicrobial activity against carbapenem-resistant Enterobacter cloacae NJ88 deficient in CTX-M-14, ompC/F by CLSI method; assay type: functional
[29] = tested on: Klebsiella pneumoniae; assay: Antimicrobial activity against carbapenem-resistant Klebsiella pneumoniae PU3 deficient in DHA-1, aac(6')-Ib-cr, ompK35/36 by CLSI method; assay type: functional
[30] = tested on: Klebsiella pneumoniae; assay: Antimicrobial activity against carbapenem-resistant Klebsiella pneumoniae SX67 deficient in SHV-2, CTX-M-14, DHA-1, qnrB6/S1, aac(6')-Ib-cr, ompK35/36 by CLSI method; assay type: functional
[31] = tested on: Enterobacter cloacae; assay: Antimicrobial activity against carbapenem-resistant Enterobacter cloacae NJ90 deficient in CTX-M-14, ompC/F by CLSI method; assay type: functional
[32] = tested on: Enterobacter cloacae; assay: Antimicrobial activity against carbapenem-resistant Enterobacter cloacae RJ94 deficient in IMP-4, TEM-1, CTX-M-3, ompC by CLSI method; assay type: functional
[33] = tested on: Klebsiella pneumoniae; assay: Antimicrobial activity against Klebsiella pneumoniae CY1T expressing SHV-11, DHA-1 by CLSI method; assay type: functional

Row | Compound | MIC [1] [µg/mL] | MIC [2] [µg/mL] | MIC [3] [µg/mL] | MIC [4] [µg/mL] | MIC [5] [µg/mL] | MIC [6] [µg/mL] | MIC [7] [µg/mL] | MIC [8] [µg/mL] | MIC [9] [µg/mL] | MIC [10] [µg/mL] | MIC [11] [µg/mL] | MIC [14] [µg/mL] | MIC [15] [µg/mL] | MIC [16] [µg/mL] | MIC [17] [µg/mL] | MIC [18] [µg/mL] | MIC [23] [µg/mL] | MIC [24] [µg/mL] | MIC [25] [µg/mL] | MIC [26] [µg/mL] | also measured
1 | CC(C)(O/N=C(\C(=O)N[C@@H]1C(=O)N2C(C(=O)[O-])=C(C[n+]3ccccc3)CS[C@H]12)c1csc(N)n1)C(=O)O [CEFTAZIDIME] | > 256 | 0.5 (≈ 0.915 µM) | 256 (≈ 468 µM) | 256 (≈ 468 µM) | 64 (≈ 117 µM) | 64 (≈ 117 µM) | > 256 | > 256 | > 256 | 256 (≈ 468 µM) | > 256 | 128 (≈ 234 µM) | 256 (≈ 468 µM) | > 256 | 64 (≈ 117 µM) | 32 (≈ 58.5 µM) | > 256 | > 256 | > 256 | > 256 | MIC [12]: > 256 µg/mL; MIC [13]: 32 µg/mL (≈ 58.5 µM); MIC [19]: 64 µg/mL (≈ 117 µM); MIC [20]: 128 µg/mL (≈ 234 µM); MIC [21]: > 256 µg/mL; MIC [22]: 256 µg/mL (≈ 468 µM); MIC [27]: 64 µg/mL (≈ 117 µM); MIC [28]: > 256 µg/mL; MIC [29]: 128 µg/mL (≈ 234 µM); MIC [30]: > 256 µg/mL; MIC [31]: > 256 µg/mL; MIC [32]: > 256 µg/mL; MIC [33]: 64 µg/mL (≈ 117 µM)
2 | C[C@@H](O)[C@H]1C(=O)N2C(C(=O)O)=C(SCCNC=N)C[C@H]12 [IMIPENEM ANHYDROUS] | 8 (≈ 26.7 µM) | 4 (≈ 13.4 µM) | 32 (≈ 107 µM) | 32 (≈ 107 µM) | 16 (≈ 53.4 µM) | > 256 | 0.25 (≈ 0.835 µM) | 32 (≈ 107 µM) | 4 (≈ 13.4 µM) | 16 (≈ 53.4 µM) | 4 (≈ 13.4 µM) | 32 (≈ 107 µM) | 1 (≈ 3.34 µM) | 2 (≈ 6.68 µM) | 0.5 (≈ 1.67 µM) | 8 (≈ 26.7 µM) | 4 (≈ 13.4 µM) | 32 (≈ 107 µM) | 16 (≈ 53.4 µM) | 4 (≈ 13.4 µM) | MIC [12]: 4 µg/mL (≈ 13.4 µM); MIC [13]: 8 µg/mL (≈ 26.7 µM); MIC [19]: 0.25 µg/mL (≈ 0.835 µM); MIC [20]: 16 µg/mL (≈ 53.4 µM); MIC [21]: 16 µg/mL (≈ 53.4 µM); MIC [22]: 2 µg/mL (≈ 6.68 µM); MIC [27]: 0.25 µg/mL (≈ 0.835 µM); MIC [28]: 16 µg/mL (≈ 53.4 µM); MIC [29]: 32 µg/mL (≈ 107 µM); MIC [30]: 4 µg/mL (≈ 13.4 µM); MIC [31]: 16 µg/mL (≈ 53.4 µM); MIC [32]: 8 µg/mL (≈ 26.7 µM); MIC [33]: 0.25 µg/mL (≈ 0.835 µM)
3 | C[C@@H](O)[C@H]1C(=O)N2C(C(=O)O)=C(S[C@@H]3CN[C@H](C(=O)N(C)C)C3)[C@H](C)[C@H]12 [MEROPENEM] | 2 (≈ 5.22 µM) | 0.125 (≈ 0.326 µM) | 8 (≈ 20.9 µM) | 8 (≈ 20.9 µM) | 8 (≈ 20.9 µM) | 256 (≈ 668 µM) | 0.032 (≈ 0.0834 µM) | 8 (≈ 20.9 µM) | 1 (≈ 2.61 µM) | 8 (≈ 20.9 µM) | 4 (≈ 10.4 µM) | 4 (≈ 10.4 µM) | 1 (≈ 2.61 µM) | 2 (≈ 5.22 µM) | 0.032 (≈ 0.0834 µM) | 8 (≈ 20.9 µM) | 4 (≈ 10.4 µM) | 4 (≈ 10.4 µM) | 8 (≈ 20.9 µM) | 1 (≈ 2.61 µM) | MIC [27]: 0.032 µg/mL (≈ 0.0834 µM); MIC [30]: 2 µg/mL (≈ 5.22 µM); MIC [32]: 8 µg/mL (≈ 20.9 µM)
4 | POLYMYXIN B | 0.5 | > 32 | 1 | 0.5 | 0.5 | 0.5 | 0.25 | 0.5 | 0.25 | 0.5 | 0.5 | 1 | 0.5 | 0.5 | 0.25 | 0.25 | 0.5 | 0.5 | 0.5 | 0.25 | MIC [13]: 0.5 µg/mL; MIC [20]: 0.25 µg/mL; MIC [21]: 0.5 µg/mL; MIC [22]: 1 µg/mL; MIC [27]: 0.25 µg/mL; MIC [28]: 0.5 µg/mL; MIC [29]: 0.5 µg/mL; MIC [30]: 1 µg/mL; MIC [31]: 0.5 µg/mL; MIC [32]: 0.5 µg/mL; MIC [33]: 0.25 µg/mL
